Test results published in patent US7169785B2, “Methods and compositions of novel triazine compounds” (Reddy US Therapeutics, Inc., priority 2001, dated 2007).
Entries after “also recorded” stand apart in the source; their conditions may differ.

Tests used:
[1] = test system: Human aortic smooth muscle cells; test: Smooth muscle cell proliferation assay (anti-proliferation assay, perlecan); assay type: cell-based; conditions: for IC50: Homo sapiens, read-out: Proliferation Data, average IC50
Protocol: Human aortic smooth muscle cells (Clonetics) were used. Cells were grown in basal medium containing 5% fetal bovine serum supplemented with growth factors, basic fibroblast growth factor, epidermal growth factor and insulin. […] The cells were then serum starved for 24 h to induce quiescence. Fresh growth medium containing no compound or 10 μM compound was then added and further incubated for 24 h. Cell number was determined by using a cell proliferation assay kit (Celltiter96 AQueous from Promega).

cells = test: Cytotoxicity / lactate dehydrogenase assay and visual observation of cells; assay type: cell-based
Protocol: Assays for determining the activity of compounds capable of cytotoxic activity include those taught in herein and others that are well known in the art. In general, to determine if there is cytotoxic activity associated with a compound, cells of a particular type, in a growing stage or a quiescient stage, are treated with the compound of interest. Various parameters of cell death or cessation are used to measure the effects of the compound. For example, the amount of nucleic acid or protein synthesis can be measured or visual observation of the state of the cells, such as release from the substrate, can be used to measure the state of the cells.
An appropriate number of cells are plated in four 96-well plates, one plate for “day 0” and three plates for days 1–3. Cells are treated with at least one compound of the present invention in varying concentrations with and without the apoptosis inducer cisplatin (2 μM) (“+cis” or “−cis”). Unteated cells are also assayed with and without cisplatin. After transfection, the plates are incubated at 37° C. overnight.
An appropriate number of cells are plated in four 96-well plates, one plate for “day 0” and three plates for days 1–3. Cells are treated with at least one compound of the present invention in varying concentrations. The negative control cells have normal media conditions, a duplicate set of wells is treated with the composition in which the compound is provided, but there is no added compound and the positive control cells are treated with the apoptosis inducer cisplatin (2 μM). All of the cells are transfected with a vector having a promoter that is responsive to apoptosis conditions. When apoptosis occurs, the promoter is turned on and the lactic dehydrogenase gene is activated and the enzyme protein is made and active. Activity is easily detected with a color change. After transfection, the plates are incubated at 37° C. overnight.
About 8 mls of warmed alpha MEM LDH lysis buffer (2% Triton X100) and about 8 mls of culture media (½ dilution) are combined. Two 96-well v-bottom plates are prepared, one labeled “lysis” and one labeled “supernatant.” To lyse the cells, about 200 μl Alpha MEM lysis buffer (diluted ½) is added to one test plate from which the supernatant has been removed and added to the plate labeled supernatant. After mixing, about 200 μl of lysed cells are transferred to the lysis plate. Both the lysis and supernatant plates are centrifuged at about 1600 rpm for about 10 min. After centrifugation, about 100 μl of both the supernatant or lysate is transferred to corresponding 96-well flat-bottomed plates.
The assay for cytotoxicity uses the Cytotoxicity Detection Kit (LDH) from Roche Diagnostics Corp. (Indianapolis, Ind.). Using the directionts provided, the dye solution is mixed and added each well of the lysate and supernatant plate and incubated for up to 20–25 min at 15–25° C. in the dark.

IL6 = test: Inflammation Data of Table 8: IL6 production compared to cells that did not receive compound (stimulus AGE or TNF not given); assay type: cell-based
Source text: Additional bioactivity data for compounds of the present invention are presented in Table 8, where compounds that have at least the activity of effecting cellular proliferation or at least the activity of modulating inflammation activity, as measured by the assays taught herein, are provided. […] The inclusion of compounds in the categories of the Tables disclosed herein, including this Table, is not to be seen as limiting, in that compounds included in such Tables have at least the activity shown for inclusion in the Table and may have more or other activities. Nor are the Tables to be seen as limiting in that these are the only compounds disclosed herein that have that activity, representative compounds are shown in the Tables that have at least that particular activity for inclusion in the Table. One or more compounds disclosed herein have at least an activity that has utility in treatment of disease states. Note that any hydrogen atoms that are required for any atom to attain its usual valence in a structure presented in Table 8, whether a carbon atom or a heteroatom, should be inferred if it is not specifically indicated.

[2] = observed in the proliferation assay

COc1ccc(Nc2nc(Cl)nc(OCC3CCCCC3)n2)cc1Cl [Compound 117, (4-Chloro-6-cyclohexylmethoxy-[1,3,5]triazin-2-yl)-(3-chloro-4-methoxy-phenyl)-amine]
melting point: 114 °C

CCc1occc(=O)c1Oc1nc(Nc2ccc(OC)c(Cl)c2)nc(NC2CCCCCC2)n1
Proliferation Data (result in words) ([1]; 5 & 10 uM screens): Not active at 5 & 10 uM
cell death under Inflammation Data (cells; at 10 uM): 20%
inhibition at 10 µM (IL6; at 10 uM): 48%

COc1ccc(Nc2nc(NN3CCCCCC3)nc(N(C)C3CCNCC3)n2)cc1Cl
melting point: 81 °C

COc1ccc(Nc2nc(NC3CCCCCC3)nc(OC(C)C)n2)cc1Cl [Compound E21, N^2-(3-chloro-4-methoxyphenyl)-N^4-cycloheptyl-6-isopropoxy-1,3,5-triazine-2,4-diamine]
melting point: 136 to 138 °C

COc1ccc(Nc2nc(NC3CCCCCC3)nc(NC3CCN(Cc4ccccc4)CC3)n2)cc1Cl [drawing 1010]
cell death under Inflammation Data (cells; at 5 uM): 20%
cell death under Inflammation Data (cells; at 10 uM): > 50%
cell morphology change / cell death observed under Proliferation Data (words with concentration) (cells; [2]): cell blunting at 1 uM; also recorded: rounding at 5 uM
inhibition at 5 µM (IL6): 37%
inhibition at 10 µM (IL6; at 10 uM): 41%

COc1ccc(Nc2nc(NC3CCCCCC3)nc(NC3CCNCC3)n2)cc1
cell death under Inflammation Data (cells; at 5 uM): 20%
cell death under Inflammation Data (cells; at 10 uM): > 50%
inhibition at 5 µM (IL6): 69%
inhibition at 10 µM (IL6; at 10 uM): 88%

COc1ccc(Nc2nc(NC3CCCCCC3)nc(Oc3ccccc3F)n2)cc1Cl [Compound E28, N^2-(3-chloro-4-methoxyphenyl)-N^4-cycloheptyl-6-(2-fluorophenoxy)-1,3,5-triazine-4,2-diamine]
melting point: 98 to 100 °C

CN1CCC(N(C)c2nc(Nc3ccc(OCc4ccccc4)c(Cl)c3)nc(NC3CCCCCC3)n2)CC1
cell death under Inflammation Data (cells; 5 uM): 30%
cell death under Inflammation Data (cells; 10 uM): totaldeath
Inflammation Data (result in words) (IL6; at 1 uM): Not active

COc1ccc(Nc2nc(NC3CCCCCC3)nc(N3CCN(C)CC3)n2)cc1Cl
Proliferation Data (result in words) ([1]; 5 & 10 uM screens): Did not pass
cell death under Inflammation Data (cells; at 5 uM): 25%
cell death under Inflammation Data (cells; at 10 uM): total cell death
cell morphology change / cell death observed under Proliferation Data (words with concentration) (cells; [2]): blunting androunding
inhibition at 10 µM (IL6; at 10 uM): 75%

COc1ccc(Nc2nc(NC3CCCCCC3)nc(OC3CCN(C)CC3)n2)cc1Cl
cell death under Inflammation Data (cells; at 10 uM): total cell death
cell morphology change / cell death observed under Proliferation Data (words with concentration) (cells; [2]): rounding at 5 & 10 uM
inhibition at 10 µM (IL6; at 10 uM): 95%

COc1ccc(Nc2nc(Nc3ccc(OC)c(Cl)c3)nc(NC3CCCCCC3)n2)cc1Cl [Compound 122, N,N′-Bis-(3-chloro-4-methoxy-phenyl)-N″-cycloheptyl-[1,3,5]triazine-2,4,6-triamine]
melting point: 183 °C

CN1CCC(N(C)c2nc(Nc3ccc(O)c(Cl)c3)nc(NC3CCCCCC3)n2)CC1 [drawing 1008]
cell death under Inflammation Data (cells; 10 uM): total cell death
cell morphology change / cell death observed under Proliferation Data (words with concentration) (cells; human, 24 h): cell bluntingat 3 to 10 uM
inhibition at 5 µM (IL6): 64%
inhibition at 10 µM (IL6; at 10 uM): 84%

COc1ccc(Nc2nc(NC3CCCCCC3)nc(NC3CCN(Cc4ccccc4)CC3)n2)cc1F
cell death under Inflammation Data (cells; at 5 uM): 25%
cell death under Inflammation Data (cells; at 10 uM): total cell death
cell morphology change / cell death observed under Proliferation Data (words with concentration) (cells; [2]): cell bluntingat 3 uM; also recorded: rounding at 5uM
inhibition at 5 µM (IL6): 43%
inhibition at 10 µM (IL6; at 10 uM): 97%

COc1ccc(Nc2nc(NC3CCCCCC3)nc(OC3CCCN(C(C)=O)C3)n2)cc1Cl (centres unmarked) [Compound E20, 1-[3-{4-(3-chloro-4-methoxyanilino)-6-cycloheptylamino-1,3,5-triazine-2-yloxy}piperidino]-1-ethanone]
melting point: 138 to 140 °C

COc1ccc(Nc2nc(Nc3ccc(OC)c(Cl)c3)nc(OCC3CCCCC3)n2)cc1Cl [Compound 118, N,N′-Bis-(3-chloro-4-methoxy-phenyl)-6-cyclohexylmethoxy-1,3,5-triazine-2,4-diamine]
melting point: 188 °C

COc1ccc(Nc2nc(NC3CCCCCC3)nc(OCC3CCCN3C)n2)cc1Cl (centres unmarked)
IC50 [1]: 5.25 µM
cell death under Inflammation Data (cells; at 10 uM): total cell death
Inflammation Data, inhibition (IL6; at 10 uM): complete inhibition

CCN1CCCC1CNc1nc(Nc2ccc(OC)c(F)c2)nc(OCC2CCCCC2)n1 (centres unmarked) [Compound 116, 6-Cyclohexylmethoxy-N-(1-ethyl-pyrrolidin-2-ylmethyl)-N′-(3-fluoro-4-methoxy-phenyl)-[1,3,5]triazine-2,4-diamine]
melting point: 59 °C

CN(c1nc(Nc2ccc(O)cc2)nc(NC2CCCCCC2)n1)C1CCNCC1
cell death under Inflammation Data (cells; 5 uM): 20%
cell death under Inflammation Data (cells; 10 uM): total cell death
inhibition at 5 µM (IL6): 50%

COc1ccc(Nc2nc(NC3CCCCCC3)nc(N3CCSCC3)n2)cc1Cl
melting point: 78 to 80 °C

COc1ccc(Nc2nc(Nc3ccc(OC)c(F)c3)nc(OCC3CCCCC3)n2)cc1F [Compound 115, 6-Cyclohexylmethoxy-N,N′-bis-(3-fluoro-4-methoxy-phenyl)-1,3,5-triazine-2,4-diamine]
melting point: 181 °C

COc1ccc(Nc2nc(O)nc(NC3CCCCCC3)n2)cc1Cl [Compound 147, 4-(3-Chloro-4-methoxy-phenylamino)-6-cycloheptylamino-1,3,5-triazin-2-ol]
melting point: > 310 °C

COc1ccc(Nc2nc(NC3CCCCCC3)nc(OC3CCCNC3)n2)cc1Cl (centres unmarked)
IC50 [1]: 4.9 µM
cell death under Inflammation Data (cells; at 10 uM): 20%
inhibition at 10 µM (IL6; at 10 uM): 60%

CCN1CCCC1CNc1nc(NCC2CCCCC2)nc(Nc2ccc(OC)c(F)c2)n1 (centres unmarked) [Compound 126, N-Cyclohexylmethyl-N′-(1-ethyl-pyrrolidin-2-ylmethyl)-N″-(3-fluoro-4-methoxy-phenyl)-[1,3,5]triazine-2,4,6-triamine]
melting point: 72 °C

COc1ccc(Nc2nc(Cl)nc(Cl)n2)cc1F [Compound 124, (4,6-Dichloro-[1,3,5]triazin-2-yl)-(3-fluoro-4-methoxy-phenyl)-amine]
melting point: 134 °C

COc1ccc(Nc2nc(NC3CCCCCC3)nc(OCC3CCCN3)n2)cc1Cl (centres unmarked) [Compound E22, N^2-(3-chloro-4-methoxyphenyl)-N^4-cycloheptyl-6-(2-azolanylmethoxy)-1,3,5-triazine-2,4-diamine]
melting point: 84 to 86 °C

CN(c1nc(Nc2ccc(OCc3ccccc3)c(Cl)c2)nc(NC2CCCCCC2)n1)C1CCNCC1
cell death under Inflammation Data (cells; 5 uM): 50%
cell death under Inflammation Data (cells; 10 uM): total cell death
Inflammation Data (result in words) (IL6; at 1 uM): not active
inhibition at 5 µM (IL6): 58%

COc1ccc(Nc2nc(NC3CCCCCC3)nc(OCCOc3ccccc3F)n2)cc1Cl
Proliferation Data (result in words) ([1]; concentration not given): Not active
Inflammation Data (result in words) (IL6; concentration not given): Not active

COc1ccc(Nc2nc(NC3CCCCCC3)nc(OCC3CCCN3)n2)cc1Cl (centres unmarked) [drawing 994]
Proliferation Data (result in words) ([1]; 5 & 10 uM screens): Not active at 5 & 10 uM
inhibition at 10 µM (IL6; at 10 uM): 75%

COc1ccc(Nc2nc(Cl)nc(OCC3CCCCC3)n2)cc1F [Compound 114, (4-Chloro-6-cyclohexylmethoxy-[1,3,5]triazin-2-yl)-(3-fluoro-4-methoxy-phenyl)-amine]
melting point: 98 °C

COc1ccc(Nc2nc(NC3CCCCCC3)nc(N3CCCC3CO)n2)cc1Cl (centres unmarked)
Proliferation Data (result in words) ([1]; 5 & 10 uM screens): Did not pass
cell morphology change / cell death observed under Proliferation Data (words with concentration) (cells; [2]): rounding
Inflammation Data (result in words) (IL6; concentration not given): Not Active

COc1ccc(Nc2nc(NC3CCCCCC3)nc(OC3CCNCC3)n2)cc1Cl
IC50 [1]: 1.85 µM
cell death under Inflammation Data (cells; at 10 uM): 20%
inhibition at 10 µM (IL6; at 10 uM): 85%

CCN1CCCC1CNc1nc(Nc2ccc(OC)c(F)c2)nc(NC2CC2)n1 (centres unmarked)
Proliferation Data (result in words) ([1]; concentration not given): Not active
inhibition at 10 µM (IL6; at 10 uM): 23%

COc1ccc(Nc2nc(Cl)nc(NC3CC3)n2)cc1F
Proliferation Data (result in words) ([1]; concentration not given): Not active
inhibition at 10 µM (IL6; at 10 uM): 36%
